Data: patent publication US12440439B2, “Mesoporous sponge spicule and methods thereof” (Xiamen University, priority 2019, dated 2025)

Test: Transdermal penetration enhancement experiments in vitro (Franz diffusion transdermal device, tape peeling, microplate reader)
Type: in vitro ADME, pig
Conditions: transdermal for 16 h
Protocol: Among them, delivery system groups of the second group and the third group are saturated 30% ethanol solutions of the Coumarin 6, and delivery volumes are […].
The aforementioned layers are divided into groups, soaked in 4 mL of a mixture of the phosphate buffer solution and methanol (a volume ratio is 1:1) to respectively extract the Coumarin 6 in a 1st layer of stratum corneum (SC1), 2nd-5th layers of stratum corneum (SC2), 6th-10th layers of stratum corneum (SC3), the epidermal layer (Epi), and the dermal layer (Der) at 200 r/min (revolutions per minutes (rpm)) at room temperature (e.g., 20-30° C.).

Content of the Coumarin 6 in SC1 (1st layer of stratum corneum): 0.005 ± 0.001 μg/1.77 cm^2 | Content of the Coumarin 6 in SC2 (2nd-5th layers of stratum corneum): 0.009 ± 0.002 μg/1.77 cm^2 | Content of the Coumarin 6 in SC3 (6th-10th layers of stratum corneum): 0.019 ± 0.003 μg/1.77 cm^2 | Content of the Coumarin 6, Total (all skin layers and receptor compartment): 0.199 ± 0.047 μg/1.77 cm^2 | Content of the Coumarin 6 in Der (dermal layer): 0.015 ± 0.011 μg/1.77 cm^2 | Content of the Coumarin 6 in Epi (epidermal layer): 0.021 ± 0.007 μg/1.77 cm^2 | Content of the Coumarin 6 in Rec (receptor compartment): 0.130 ± 0.043 μg/1.77 cm^2
Structure (SMILES): CCN(CC)c1ccc2cc(-c3nc4ccccc4s3)c(=O)oc2c1 [Control, Coumarin 6]
